Test results published in ChEMBL document CHEMBL4052802, “Design, synthesis and biological evaluation of novel 3-oxo-4-oxa-5α-androst-17β-amide derivatives as dual 5α-reductase inhibitors and androgen receptor antagonists” (Bioorg Med Chem Lett, 2017).

Key:
[1] = Inhibition of rat liver 5alpha-reductase using testosterone as substrate incubated for 30 mins measured for 10 mins by fluorescence assay
[2] = species: Rattus norvegicus; assay: Inhibition of rat liver 5alpha-reductase at 50 uM using testosterone as substrate incubated for 30 mins measured for 10 mins by fluorescence assay relative to control
[3] = test system: PC-3; assay: Cytotoxicity against human PC3 cells after 48 hrs by MTT assay; assay type: functional, cell-based; details: PC-3, 48 h
[4] = test system: LNCaP; assay: Growth inhibition of human LNCAP cells at 80 uM after 48 hrs by MTT assay relative to control; assay type: functional; details: read-out: GI
[5] = test system: PC-3; assay: Growth inhibition of human PC3 cells at 80 uM after 48 hrs by MTT assay relative to control; assay type: functional; details: PC-3, 48 h, read-out: GI
[6] = biological target: Androgen receptor (Homo sapiens) (UniProt P10275); assay: Inhibition of recombinant human His-tagged/GST-fused androgen receptor LBD expressed in baculovirus expression system at 50 uM measured after 1.5 hrs by fluorescence polarization assay relative to control
[7] = Elimination half-life in Sprague-Dawley rat at 0.2 mg/kg, po by LC-MS/MS analysis; assay type: ADME, organism-based; details: in vivo, read-out: beta t1/2 (converted)
[8] = Tmax in Sprague-Dawley rat at 0.2 mg/kg, po by LC-MS/MS analysis; assay type: ADME, organism-based; details: in vivo
[9] = Cmax in Sprague-Dawley rat at 0.2 mg/kg, po by LC-MS/MS analysis; assay type: ADME, organism-based; design: dose 0.2 mg/kg, route oral; details: in vivo
[10] = AUC (0 to t) in Sprague-Dawley rat at 0.2 mg/kg, po by LC-MS/MS analysis; assay type: ADME, organism-based; details: in vivo
[11] = AUC (0 to infinity) in Sprague-Dawley rat at 0.2 mg/kg, po by LC-MS/MS analysis; assay type: ADME, organism-based; design: dose 0.2 mg/kg, route oral, time infinity; details: in vivo
[12] = test system: Plasma; assay: Retention time in Sprague-Dawley rat plasma at 0.2 mg/kg, po measured after 24 hrs by total ion chromatographic method; assay type: ADME, organism-based; details: in vivo
[13] = biological target: T1, Androgen receptor (Rattus norvegicus, UniProt P15207); assay: Displacement of fluormone-AL Green from recombinant rat His-tagged/GST-fused androgen receptor LBD expressed in baculovirus expression system measured after 1.5 hrs by fluorescence polarization assay
T1 sequence (P15207 whole entry): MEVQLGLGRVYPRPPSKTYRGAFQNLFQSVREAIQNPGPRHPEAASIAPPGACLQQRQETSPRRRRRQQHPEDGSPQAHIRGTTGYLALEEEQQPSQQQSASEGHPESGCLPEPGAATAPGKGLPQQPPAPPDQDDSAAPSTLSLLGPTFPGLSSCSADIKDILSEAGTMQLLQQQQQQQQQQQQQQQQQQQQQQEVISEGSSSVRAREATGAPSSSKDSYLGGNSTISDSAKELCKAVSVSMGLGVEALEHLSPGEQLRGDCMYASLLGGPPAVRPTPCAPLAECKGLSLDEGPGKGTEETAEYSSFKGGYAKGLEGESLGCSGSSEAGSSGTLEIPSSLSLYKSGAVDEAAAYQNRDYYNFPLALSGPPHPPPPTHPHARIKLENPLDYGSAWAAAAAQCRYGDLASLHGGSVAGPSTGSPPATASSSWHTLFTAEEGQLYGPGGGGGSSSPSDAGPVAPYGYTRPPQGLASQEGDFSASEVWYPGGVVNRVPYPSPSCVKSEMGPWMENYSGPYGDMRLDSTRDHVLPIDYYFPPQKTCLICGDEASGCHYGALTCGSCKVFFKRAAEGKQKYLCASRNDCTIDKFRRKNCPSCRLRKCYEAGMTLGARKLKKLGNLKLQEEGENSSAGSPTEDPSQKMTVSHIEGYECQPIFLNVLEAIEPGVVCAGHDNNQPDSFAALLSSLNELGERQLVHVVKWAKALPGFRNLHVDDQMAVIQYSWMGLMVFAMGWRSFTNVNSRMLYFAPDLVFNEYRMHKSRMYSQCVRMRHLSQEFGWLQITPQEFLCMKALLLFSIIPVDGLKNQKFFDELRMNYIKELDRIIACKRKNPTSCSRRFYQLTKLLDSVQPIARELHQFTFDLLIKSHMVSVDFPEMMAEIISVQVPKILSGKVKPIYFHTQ

[14] = test system: LNCaP; assay: Cytotoxicity against human LNCAP cells after 48 hrs by MTT assay; assay type: functional, cell-based
[15] = Selectivity ratio of IC50 for human PC3 cells to IC50 for human LNCAP cells; assay type: functional
[16] = test system: Plasma; assay: Drug uptake in Sprague-Dawley rat plasma at 0.2 mg/kg, po after 6 hrs by LC-MS/MS analysis; assay type: ADME, organism-based; details: in vivo
[17] = biological target: T2, 3-oxo-5-alpha-steroid 4-dehydrogenase 1 (Homo sapiens, UniProt P18405); assay: Inhibition of recombinant human 5alpha-reductase type1 expressed in baculovirus expression system using [7-3H]T as substrate pretreated for 18 hrs followed by substrate addition measured after 90 mins by reverse-phase HPLC method
T2 sequence (P18405 whole entry): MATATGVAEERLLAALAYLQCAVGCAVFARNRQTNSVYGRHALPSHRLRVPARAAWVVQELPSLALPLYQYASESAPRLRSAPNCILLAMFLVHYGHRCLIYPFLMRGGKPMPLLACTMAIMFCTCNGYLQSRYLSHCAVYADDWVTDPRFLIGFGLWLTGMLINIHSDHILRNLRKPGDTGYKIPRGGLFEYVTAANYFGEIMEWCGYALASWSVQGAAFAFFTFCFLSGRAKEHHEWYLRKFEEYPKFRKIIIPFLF

[18] = biological target: T3, 3-oxo-5-alpha-steroid 4-dehydrogenase 2 (Homo sapiens, UniProt P31213); assay: Inhibition of recombinant human 5alpha-reductase type2 expressed in baculovirus expression system using [7-3H]T as substrate pretreated for 18 hrs followed by substrate addition by reverse-phase HPLC method
T3 sequence (P31213 whole entry): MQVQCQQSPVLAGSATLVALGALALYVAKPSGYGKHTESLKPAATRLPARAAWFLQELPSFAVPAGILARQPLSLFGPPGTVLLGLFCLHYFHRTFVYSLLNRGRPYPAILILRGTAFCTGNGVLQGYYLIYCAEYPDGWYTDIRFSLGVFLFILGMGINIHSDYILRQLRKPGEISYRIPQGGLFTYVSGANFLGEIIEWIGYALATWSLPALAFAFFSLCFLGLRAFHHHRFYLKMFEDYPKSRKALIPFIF

[19] = biological target: T4, Androgen receptor (Homo sapiens, UniProt P10275); assay: Displacement of [3H]-DHT from recombinant human androgen receptor expressed in CHO cells; assay type: cell-based
T4 sequence (P10275 whole entry): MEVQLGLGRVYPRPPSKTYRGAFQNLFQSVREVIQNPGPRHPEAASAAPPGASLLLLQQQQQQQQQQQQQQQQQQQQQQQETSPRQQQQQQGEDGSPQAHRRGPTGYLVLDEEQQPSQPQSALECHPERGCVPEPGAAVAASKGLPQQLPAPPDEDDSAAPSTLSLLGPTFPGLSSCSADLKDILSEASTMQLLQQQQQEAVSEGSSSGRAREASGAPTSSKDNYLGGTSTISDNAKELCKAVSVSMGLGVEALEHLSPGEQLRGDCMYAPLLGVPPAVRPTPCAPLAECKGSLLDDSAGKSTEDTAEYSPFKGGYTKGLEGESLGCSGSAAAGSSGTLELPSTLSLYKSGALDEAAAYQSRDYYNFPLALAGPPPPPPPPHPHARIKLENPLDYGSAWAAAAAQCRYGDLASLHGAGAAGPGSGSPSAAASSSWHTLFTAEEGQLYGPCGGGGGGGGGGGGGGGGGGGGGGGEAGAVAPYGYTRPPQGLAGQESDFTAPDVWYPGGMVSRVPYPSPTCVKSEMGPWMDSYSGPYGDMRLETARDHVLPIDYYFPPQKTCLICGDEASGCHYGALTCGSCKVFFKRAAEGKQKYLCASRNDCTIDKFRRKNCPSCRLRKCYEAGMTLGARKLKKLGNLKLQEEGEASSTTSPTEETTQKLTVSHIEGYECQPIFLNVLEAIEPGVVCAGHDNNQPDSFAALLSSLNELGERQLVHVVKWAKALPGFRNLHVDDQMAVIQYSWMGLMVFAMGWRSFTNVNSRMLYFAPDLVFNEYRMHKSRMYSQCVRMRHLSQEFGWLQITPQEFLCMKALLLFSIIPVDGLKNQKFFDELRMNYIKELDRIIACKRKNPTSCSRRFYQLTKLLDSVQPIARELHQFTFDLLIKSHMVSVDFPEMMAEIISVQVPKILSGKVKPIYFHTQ

| Compound | inhibition [2] | IC50 [3] | inhibition of growth at 80 µM [4] | inhibition of growth at 80 µM [5] | inhibition [6] | further results |
| --- | --- | --- | --- | --- | --- | --- |
| C[C@]12CCC(=O)O[C@@H]1CC[C@@H]1[C@@H]2CC[C@]2(C)[C@@H](C(=O)N3CCCCC3)CC[C@@H]12 | 89.3% | 85.4 µM | 12.3% | 26.2% | 17.4% | IC50 [1]: 6.01 µM |
| CC(C)(C)NC(=O)[C@H]1CC[C@H]2[C@@H]3CC[C@H]4NC(=O)C=C[C@]4(C)[C@H]3CC[C@]12C [FINASTERIDE] | 94.3% | > 80 µM |  | 0.4% |  | IC50 [1]: 0.59 µM; half-life [7]: 3.91 h; Tmax [8]: 2.67 h; Cmax [9]: 4.19 ng/mL; AUC(0-t) [10]: 23.5 ng·h/mL; AUC(0-inf) [11]: 23.8 ng·h/mL; Retention_time [12]: 3.5 min |
| C[C@]12CCC(=O)O[C@@H]1CC[C@@H]1[C@@H]2CC[C@]2(C)[C@@H](C(=O)N(c3ccccc3)c3ccccc3)CC[C@@H]12 | 15.5% | 75.2 µM | 31.4% | 35.4% | 3.29% |  |
| C[C@H]1CC(=O)C[C@@H]2CC[C@H]3[C@@H]4CC[C@H](O)[C@@]4(C)CC[C@@H]3[C@]21C [MESTEROLONE] |  |  |  |  |  | IC50 [13]: 18.3 µM |
| CC(C)(C)NC(=O)[C@H]1CC[C@H]2[C@@H]3CC[C@H]4OC(=O)CC[C@]4(C)[C@H]3CC[C@]12C | 48.3% | 70.1 µM | 37.3% | 28.1% | 3.73% |  |
| C[C@]12CCC(=O)O[C@@H]1CC[C@@H]1[C@@H]2CC[C@]2(C)[C@@H](C(=O)N(C3CCCCC3)C3CCCCC3)CC[C@@H]12 | 33.4% | 74.3 µM | 13.8% | 32% | 11.3% |  |
| Cc1ccc(NC(=O)[C@H]2CC[C@H]3[C@@H]4CC[C@H]5OC(=O)CC[C@]5(C)[C@H]4CC[C@]23C)cc1 | 98.5% | 114 µM | 82.3% | 18.1% | 55.5% | IC50 [1]: 0.27 µM; IC50 [13]: 47.6 µM; IC50 [14]: 26.5 µM; Ratio IC50 [15]: 4; half-life [7]: 4.74 h; Tmax [8]: 3.83 h; Cmax [9]: 6.89 ng/mL; AUC(0-t) [10]: 52.5 ng·h/mL; AUC(0-inf) [11]: 54.1 ng·h/mL; Retention_time [12]: 3.6 min; Drug uptake [16]: Not Active |
| C[C@]12CCC(=O)O[C@@H]1CC[C@@H]1[C@@H]2CC[C@]2(C)[C@@H](C(=O)Nc3ccc(F)cc3)CC[C@@H]12 | 46.9% | 50 µM | 39.7% | 46.3% | 18.9% |  |
| C[C@]12CCC(=O)O[C@@H]1CC[C@@H]1[C@@H]2CC[C@]2(C)[C@@H](C(=O)N(Cc3ccccc3)Cc3ccccc3)CC[C@@H]12 | 69.8% | 127 µM | 81.8% | 12.9% | 57.1% | IC50 [13]: 16.8 µM; IC50 [14]: 29.8 µM; Ratio IC50 [15]: 4 |
| CC(C)C(=O)Nc1ccc([N+](=O)[O-])c(C(F)(F)F)c1 [FLUTAMIDE] |  | 67.3 µM | 63% | 21.2% |  | IC50 [14]: 47.6 µM |
| C[C@]12CCC(=O)O[C@@H]1CC[C@@H]1[C@@H]2CC[C@]2(C)[C@@H](C(=O)Nc3ccccc3)CC[C@@H]12 | 67.3% | 86.2 µM | 24.2% | 31.7% | 7.09% |  |
| CN(C(=O)[C@H]1CC[C@H]2[C@@H]3CC[C@H]4OC(=O)CC[C@]4(C)[C@H]3CC[C@]12C)c1ccccc1 | 84.2% | 62.2 µM | 30% | 35.1% | 14.3% | IC50 [1]: 0.89 µM |
| C[C@]12CCC(=O)N[C@@H]1CC[C@@H]1[C@@H]2CC[C@]2(C)[C@@H](C(=O)Nc3ccccc3)CC[C@@H]12 |  |  |  |  |  | IC50 [17]: 0.41 µM; IC50 [18]: 0.015 µM; IC50 [19]: 23 µM |
| CCCCN(CCCC)C(=O)[C@H]1CC[C@H]2[C@@H]3CC[C@H]4OC(=O)CC[C@]4(C)[C@H]3CC[C@]12C | 36.5% | 40.1 µM | 88.9% | 89.9% | 11.8% | IC50 [14]: 32.4 µM |
| CCN(CC)C(=O)[C@H]1CC[C@H]2[C@@H]3CC[C@H]4OC(=O)CC[C@]4(C)[C@H]3CC[C@]12C | 39.5% | 68.2 µM | 42.7% | 27.9% | 33.7% |  |
